Measured values published in the Kinase Knowledgebase extract (Sharma et al. 2016).

The compounds below were run against EGFR (human) (UniProt P00533). Conditions: not given.
Chain of EGFR (human) (P00533 whole entry, looked up): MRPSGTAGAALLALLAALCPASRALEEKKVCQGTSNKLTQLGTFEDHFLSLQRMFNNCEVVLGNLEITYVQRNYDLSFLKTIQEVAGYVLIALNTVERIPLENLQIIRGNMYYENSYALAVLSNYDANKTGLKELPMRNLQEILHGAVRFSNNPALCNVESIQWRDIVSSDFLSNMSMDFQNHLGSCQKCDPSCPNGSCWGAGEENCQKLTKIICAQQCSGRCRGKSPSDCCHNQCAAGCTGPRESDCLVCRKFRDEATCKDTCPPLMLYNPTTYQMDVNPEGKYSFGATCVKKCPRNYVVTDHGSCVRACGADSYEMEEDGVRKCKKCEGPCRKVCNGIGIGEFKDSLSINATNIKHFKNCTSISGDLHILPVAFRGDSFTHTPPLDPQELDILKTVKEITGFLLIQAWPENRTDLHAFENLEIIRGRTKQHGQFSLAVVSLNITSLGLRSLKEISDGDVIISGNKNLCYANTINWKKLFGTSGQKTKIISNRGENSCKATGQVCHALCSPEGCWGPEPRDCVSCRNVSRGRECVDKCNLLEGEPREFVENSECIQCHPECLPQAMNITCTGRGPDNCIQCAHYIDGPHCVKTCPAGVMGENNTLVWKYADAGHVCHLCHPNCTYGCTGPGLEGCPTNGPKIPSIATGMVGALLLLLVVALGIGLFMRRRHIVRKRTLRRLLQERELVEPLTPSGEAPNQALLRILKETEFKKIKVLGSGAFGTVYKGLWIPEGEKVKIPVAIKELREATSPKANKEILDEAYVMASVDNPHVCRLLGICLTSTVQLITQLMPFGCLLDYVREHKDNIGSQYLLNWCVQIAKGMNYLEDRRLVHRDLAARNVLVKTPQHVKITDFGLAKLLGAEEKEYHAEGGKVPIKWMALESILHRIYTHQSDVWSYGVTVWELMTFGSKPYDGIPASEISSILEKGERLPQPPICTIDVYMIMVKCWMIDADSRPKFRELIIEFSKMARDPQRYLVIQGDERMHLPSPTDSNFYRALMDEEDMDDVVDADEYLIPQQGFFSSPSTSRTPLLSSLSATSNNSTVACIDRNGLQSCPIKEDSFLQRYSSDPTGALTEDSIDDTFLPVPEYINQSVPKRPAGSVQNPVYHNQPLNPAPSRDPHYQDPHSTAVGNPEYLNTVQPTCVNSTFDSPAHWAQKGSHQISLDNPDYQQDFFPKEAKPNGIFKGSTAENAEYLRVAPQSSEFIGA

Row | IC50 | SMILES
1 | 127 nM | CCN(CC)Cc1cn(-c2ccc3ncnc(Nc4ccc(OCc5cccc(F)c5)c(Cl)c4)c3c2)cc1CN(CC)CC
2 | 12 nM | OC(CN1CCOCC1)Cn1ccc(-c2ccc3ncnc(Nc4ccc(OCc5cccc(F)c5)c(Cl)c4)c3c2)c1 (centres undefined)
3 | 24 nM | CS(=O)(=O)CCNC(=O)c1cc(-c2ccc3ncnc(Nc4ccc(OCc5cccc(F)c5)c(Cl)c4)c3c2)c[nH]1
4 | 2 nM | Fc1cccc(COc2ccc(Nc3ncnc4ccc(-c5ccn(CCN6CCNCC6)c5)cc34)cc2Cl)c1
5 | 91 nM | O[C@@H](CNCc1cn(-c2ccc3ncnc(Nc4ccc(OCc5cccc(F)c5)c(Cl)c4)c3c2)cc1C(F)(F)F)CN1CCOCC1
6 | 25 nM | CS(=O)(=O)CCNCc1cn(-c2ccc3ncnc(Nc4ccc5c(cnn5Cc5cccc(F)c5)c4)c3c2)cc1CCO
7 | 42 nM | CN1CCN(Cc2cn(-c3ccc4ncnc(Nc5ccc(OCc6cccc(F)c6)c(Cl)c5)c4c3)cc2CCO)CC1
8 | 53 nM | CCN(CC)CCNCc1cn(-c2ccc3ncnc(Nc4ccc(OCc5cccc(F)c5)c(Cl)c4)c3c2)cc1C(F)(F)F
9 | 30 nM | O=C(c1cn(-c2ccc3ncnc(Nc4ccc(OCc5ccccn5)c(Cl)c4)c3c2)cc1CCO)N1CCCC1
10 | 39 nM | CN(C)Cc1cn(-c2ccc3ncnc(Nc4ccc(OCc5cccc(F)c5)c(Cl)c4)c3c2)cc1CCO
11 | 102 nM | Fc1cccc(COc2ccc(Nc3ncnc4ccc(-c5c[nH]c(CNCCN6CCOCC6)c5)cc34)cc2Cl)c1
12 | 65 nM | CS(=O)(=O)CCNCc1cn(-c2ccc3ncnc(Nc4ccc(F)c(Cl)c4)c3c2)cc1CCO
13 | 3 nM | Fc1cccc(Cn2ncc3cc(Nc4ncnc5ccc(-c6cc[nH]c6)cc45)ccc32)c1
14 | 49 nM | OC1CCC(NCC(O)Cn2ccc(-c3ccc4ncnc(Nc5ccc(OCc6cccc(F)c6)c(Cl)c5)c4c3)c2)CC1 (centres undefined)
15 | 40 nM | Fc1cccc(COc2ccc(Nc3ncnc4ccc(-c5ccn(CCN6CCOCC6)c5)cc34)cc2Cl)c1
16 | 131 nM | Fc1cccc(COc2ccc(Nc3ncnc4ccc(-c5ccn(CCOC6CCCCO6)c5)cc34)cc2Cl)c1 (centres undefined)
17 | 15 nM | CCN(CC)CCc1cn(-c2ccc3ncnc(Nc4ccc(OCc5cccc(F)c5)c(Cl)c4)c3c2)cc1C(=O)N1CCOCC1
18 | 31 nM | CCOC(=O)c1cn(-c2ccc3ncnc(Nc4ccc(OCc5cccc(F)c5)c(Cl)c4)c3c2)cc1C(F)(F)F
19 | 72 nM | COCCc1cn(-c2ccc3ncnc(Nc4ccc(OCc5cccc(F)c5)c(Cl)c4)c3c2)cc1C(=O)N1CCOCC1
20 | 37 nM | CCN(CC)Cc1cn(-c2ccc3ncnc(Nc4ccc(OCc5cccc(F)c5)c(Cl)c4)c3c2)cc1CCO
21 | 32 nM | Fc1cccc(COc2ccc(Nc3ncnc4ccc(-n5cc(CNCCN6CCOCC6)c(C(F)(F)F)c5)cc34)cc2Cl)c1
22 | 8 nM | O=C(NCCN1CCCCC1)c1cn(-c2ccc3ncnc(Nc4ccc(OCc5cccc(F)c5)c(Cl)c4)c3c2)cc1CCO
23 | 127 nM | O=S1(=O)CCC(CNCc2cn(-c3ccc4ncnc(Nc5ccc(F)c(Cl)c5)c4c3)cc2CCO)CC1
24 | 115 nM | O=C(NCCCN1CCOCC1)c1cn(-c2ccc3ncnc(Nc4ccc5c(cnn5Cc5ccc(F)cc5)c4)c3c2)cc1CCO
25 | 140 nM | CCN(CC)C(=O)Cn1ccc(-c2ccc3ncnc(Nc4ccc(OCc5cccc(F)c5)c(Cl)c4)c3c2)c1

Row | IC50 | SMILES
26 | 17 nM | CS(=O)(=O)CCNCC(O)Cn1ccc(-c2ccc3ncnc(Nc4ccc(OCc5cccc(F)c5)c(Cl)c4)c3c2)c1 (centres undefined)
27 | 14 nM | CS(=O)(=O)n1ccc(-c2ccc3ncnc(Nc4ccc(OCc5cccc(F)c5)c(Cl)c4)c3c2)c1
28 | 291 nM | Fc1cccc(COc2ccc(Nc3ncnc4ccc(-n5cc(CN6CCCCC6)c(CN6CCCCC6)c5)cc34)cc2Cl)c1
29 | 105 nM | O=C(c1cn(-c2ccc3ncnc(Nc4ccc(OCc5ccccn5)c(Cl)c4)c3c2)cc1CCO)N1CCC(N2CCCCC2)CC1
30 | 5 nM | C=C(C)C(=O)Nc1cn(-c2ccc3ncnc(Nc4ccc(OCc5cccc(F)c5)c(Cl)c4)c3c2)cc1C(F)(F)F
31 | 15 nM | CN(C)Cc1cn(-c2ccc3ncnc(Nc4ccc5c(cnn5Cc5cccc(F)c5)c4)c3c2)cc1CCO
32 | 56 nM | CN(C)Cc1cn(-c2ccc3ncnc(Nc4ccc(OCc5cccc(F)c5)c(Cl)c4)c3c2)cc1CN(C)C
33 | 66 nM | Fc1cccc(COc2ccc(Nc3ncnc4ccc(-c5c[nH]c(CN6CCC(N7CCCCC7)CC6)c5)cc34)cc2Cl)c1
34 | 96 nM | O=C(NCCCN1CCOCC1)c1cn(-c2ccc3ncnc(Nc4ccc(OCc5ccccn5)c(Cl)c4)c3c2)cc1CCO
35 | 470 nM | CC(C)(C)OC(=O)N1CCC(NCc2cc(-c3ccc4ncnc(Nc5ccc(OCc6cccc(F)c6)c(Cl)c5)c4c3)c[nH]2)CC1
36 | 10 nM | Fc1cccc(COc2ccc(Nc3ncnc4ccc(-n5cc(CNCCN6CCCCC6)c(C(F)(F)F)c5)cc34)cc2Cl)c1
37 | 66 nM | O=C(Cn1ccc(-c2ccc3ncnc(Nc4ccc(OCc5cccc(F)c5)c(Cl)c4)c3c2)c1)N1CCCCC1
38 | 25 nM | O=C(c1cn(-c2ccc3ncnc(Nc4ccc(OCc5cccc(F)c5)c(Cl)c4)c3c2)cc1CCN1CCOCC1)N1CCOCC1
39 | 30 nM | OC(CN1CCNCC1)Cn1ccc(-c2ccc3ncnc(Nc4ccc(OCc5cccc(F)c5)c(Cl)c4)c3c2)c1 (centres undefined)
40 | 197 nM | Fc1cccc(COc2ccc(Nc3ncnc4ccc(-c5c[nH]c(CNCCCN6CCOCC6)c5)cc34)cc2Cl)c1
41 | 11 nM | COCCNCC(O)Cn1ccc(-c2ccc3ncnc(Nc4ccc(OCc5cccc(F)c5)c(Cl)c4)c3c2)c1 (centres undefined)
42 | 62 nM | CN1CCN(C(=O)c2cn(-c3ccc4ncnc(Nc5ccc6c(cnn6Cc6ccc(F)cc6)c5)c4c3)cc2CCO)CC1
43 | 42 nM | O=S1(=O)CCC(CNCC(O)Cn2ccc(-c3ccc4ncnc(Nc5ccc(OCc6cccc(F)c6)c(Cl)c5)c4c3)c2)CC1 (centres undefined)
44 | 22 nM | OCCc1cn(-c2ccc3ncnc(Nc4ccc(OCc5ccccn5)c(Cl)c4)c3c2)cc1CN1CCOCC1
45 | 92 nM | OC(CNCCN1CCCCC1)Cn1ccc(-c2ccc3ncnc(Nc4ccc(OCc5cccc(F)c5)c(Cl)c4)c3c2)c1 (centres undefined)
46 | 76 nM | O=S1(=O)CCC(O)(CNCc2cn(-c3ccc4ncnc(Nc5ccc(F)c(Cl)c5)c4c3)cc2CCO)CC1
47 | 57 nM | CN(C)CCc1cn(-c2ccc3ncnc(Nc4ccc(OCc5cccc(F)c5)c(Cl)c4)c3c2)cc1C(=O)N1CCOCC1
48 | 19 nM | O=S1(=O)CCC(O)(CNCc2cn(-c3ccc4ncnc(Nc5ccc(OCc6cccc(F)c6)c(Cl)c5)c4c3)cc2CCO)CC1
49 | 21 nM | CCN(CC)Cc1cn(-c2ccc3ncnc(Nc4ccc(OCc5ccccn5)c(Cl)c4)c3c2)cc1CCO
50 | 638 nM | Fc1cccc(COc2ccc(Nc3ncnc4ccc(-c5ccn(C[C@H]6CCNC6)c5)cc34)cc2Cl)c1

Row | IC50 | SMILES
51 | 12 nM | O=S1(=O)CCC(CNCc2cn(-c3ccc4ncnc(Nc5ccc6c(cnn6Cc6cccc(F)c6)c5)c4c3)cc2CCO)CC1
52 | 31 nM | COCCNCc1cc(-c2ccc3ncnc(Nc4ccc(OCc5cccc(F)c5)c(Cl)c4)c3c2)c[nH]1
53 | 47 nM | Fc1ccc(Nc2ncnc3ccc(-c4cc[nH]c4)cc23)cc1Cl
54 | 376 nM | Fc1cccc(COc2ccc(Nc3ncnc4ccc(-n5cc(CN6CCOCC6)c(CN6CCOCC6)c5)cc34)cc2Cl)c1
55 | 13 nM | O=C(Cn1ccc(-c2ccc3ncnc(Nc4ccc(OCc5cccc(F)c5)c(Cl)c4)c3c2)c1)NC1CC1
56 | 72 nM | CCN(CC)CCON=C1CCc2cn(-c3ccc4ncnc(Nc5ccc(OCc6cccc(F)c6)c(Cl)c5)c4c3)cc21
57 | 2 nM | O=C1CCc2cn(-c3ccc4ncnc(Nc5ccc(OCc6cccc(F)c6)c(Cl)c5)c4c3)cc21
58 | 23 nM | O=C(NCCN1CCCCC1)c1cn(-c2ccc3ncnc(Nc4ccc5c(cnn5Cc5ccc(F)cc5)c4)c3c2)cc1CCO
59 | 24 nM | O=S1(=O)CCC(CNCc2cn(-c3ccc4ncnc(Nc5ccc(OCc6cccc(F)c6)c(Cl)c5)c4c3)cc2CCO)CC1
60 | 95 nM | O=C(c1cn(-c2ccc3ncnc(Nc4ccc(OCc5ccccn5)c(Cl)c4)c3c2)cc1CCO)N1CCCCC1
61 | 50 nM | O=C(c1cn(-c2ccc3ncnc(Nc4ccc5c(cnn5Cc5ccc(F)cc5)c4)c3c2)cc1CCO)N1CCOCC1
62 | 4 nM | CS(=O)(=O)CCNCc1cc(-c2ccc3ncnc(Nc4ccc5c(cnn5Cc5cccc(F)c5)c4)c3c2)c[nH]1
63 | 12 nM | OC1(Cn2ccc(-c3ccc4ncnc(Nc5ccc(OCc6cccc(F)c6)c(Cl)c5)c4c3)c2)CCNCC1
64 | 71 nM | OCCc1cn(-c2ccc3ncnc(Nc4ccc(OCc5cccc(F)c5)c(Cl)c4)c3c2)cc1CNCCN1CCOCC1
65 | 60 nM | OCC1CCCN1CCn1ccc(-c2ccc3ncnc(Nc4ccc(OCc5cccc(F)c5)c(Cl)c4)c3c2)c1 (centres undefined)
66 | 16 nM | CS(=O)(=O)CCNCc1cn(-c2ccc3ncnc(Nc4ccc(OCc5ccccn5)c(Cl)c4)c3c2)cc1CCO
67 | 28 nM | CC(C)(C)OC(=O)n1cccc1-c1ccc2ncnc(Nc3ccc(OCc4cccc(F)c4)c(Cl)c3)c2c1
68 | 16 nM | O=C(NCCN1CCCC1)c1cn(-c2ccc3ncnc(Nc4ccc5c(cnn5Cc5ccc(F)cc5)c4)c3c2)cc1CCO
69 | 16 nM | O=S1(=O)CCC(O)(CNCc2cn(-c3ccc4ncnc(Nc5ccc(OCc6cccc(F)c6)c(Cl)c5)c4c3)cc2C(F)(F)F)CC1
70 | 11 nM | CS(=O)(=O)CCNCc1cn(-c2ccc3ncnc(Nc4ccc(OCc5cccc(F)c5)c(Cl)c4)c3c2)cc1CCO
71 | 34 nM | O=C(Cn1ccc(-c2ccc3ncnc(Nc4ccc(OCc5cccc(F)c5)c(Cl)c4)c3c2)c1)NC1CCNCC1
72 | 276 nM | CN(C)CC=CC(=O)Nc1cn(-c2ccc3ncnc(Nc4ccc(OCc5cccc(F)c5)c(Cl)c4)c3c2)cc1C(F)(F)F
73 | 156 nM | CCN(CC)CCNC(=O)c1cn(-c2ccc3ncnc(Nc4ccc5c(cnn5Cc5ccc(F)cc5)c4)c3c2)cc1CCO

Each compound was assayed against EGFR (human) (UniProt P00533). Conditions: a431.

Row | IC50 | SMILES
74 | 612 nM | Fc1cccc(Cn2ncc3cc(Nc4ncnc5ccc(-c6ccn(CCN7CCCC7)c6)cc45)ccc32)c1
75 | 415 nM | O[C@@H](CN1CCC(N2CCCCC2)CC1)Cn1ccc(-c2ccc3ncnc(Nc4ccc(OCc5cccc(F)c5)c(Cl)c4)c3c2)c1
76 | 130 nM | CC(Nc1ncnc2ccc(-n3cc(CCO)c(CN4CCCC4)c3)cc12)c1ccccc1 (centres undefined)
77 | 1700 nM | CCOC(=O)C1CCCN(CC(O)Cn2ccc(-c3ccc4ncnc(Nc5ccc(OCc6cccc(F)c6)c(Cl)c5)c4c3)c2)C1 (centres undefined)
78 | 1180 nM | CS(=O)(=O)N1CCN(CC(O)Cn2ccc(-c3ccc4ncnc(Nc5ccc(OCc6cccc(F)c6)c(Cl)c5)c4c3)c2)CC1 (centres undefined)
79 | 150 nM | CN(C)Cc1cn(-c2ccc3ncnc(Nc4ccc(F)c(Cl)c4)c3c2)cc1CCO
